# Test results from patent publication US10597388B2, “Pyridazinone herbicides” (FMC CORPORATION, priority 2014, dated 2020).
# Like-named read-outs stand apart in the source and are kept apart here.
# How the values were obtained:
# Assay type in all cases: in vivo
# [1] = system: foxtail, giant (giant foxtail, Setaria faberii); assay: Test A greenhouse herbicide test, pre- and postemergence; conditions: for pest or weed control at 1000 g/ha / pest or weed control at 125 g/ha / pest or weed control at 500 g/ha: Setaria faberi, 240 h; for pest or weed control at 1000 g/ha: 1000 g ai/ha
# Outline: (§1)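 Seeds in loam–sand blend received a preemergence directed soil spray; plants at 2–10 cm, one- to two-leaf stage, received postemergence sprays. Compounds in a non-phytotoxic solvent with surfactant. After about 10 d in a greenhouse, injury rated visually versus untreated controls on a 0–100 scale (100 = complete control).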
# [2] = system: chickweed (common chickweed, Stellaria media); assay: Test C greenhouse herbicide test, postemergence
# Outline: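 Greenhouse postemergence spray on plants 2–18 cm tall; response judged visually after 13–15 d relative to untreated controls using a 0 (none) to 100 (full control) scale.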
# [3] = system: ducksalad (Heteranthera limosa); assay: Test B flooded paddy test; conditions: 250 g ai/ha, Flood, visual rating on scale of 0 to 100 where 0 is no effect and 100 is complete control, 13 to 15 d after treatment; for pest or weed control at 250 g/ha: Heteranthera limosa, 360 h, read-out: Plant response rating, Ducksalad
# Outline: (§2)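 Plants grown to the 2-leaf stage. At treatment, pots were flooded to 3 cm above the soil, compound was applied directly to the paddy water, and that depth was held throughout. After 13 to 15 d in the greenhouse, response was rated visually against controls on a 0 (no effect) to 100 (complete control) scale.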
# [4] = system: sedge, umbrella (small-flower umbrella sedge, Cyperus difformis); assay: Test B flooded paddy test; conditions: 250 g ai/ha, Flood, visual rating on scale of 0 to 100 where 0 is no effect and 100 is complete control, 13 to 15 d after treatment; for pest or weed control at 250 g/ha: Cyperus difformis, 360 h, read-out: Plant response rating, Sedge, Umbrella
# Outline: as §2
# [5] = system: barnyardgrass (Echinochloa crus-galli); assay: Test B flooded paddy test; conditions: 250 g ai/ha, Flood, visual rating on scale of 0 to 100 where 0 is no effect and 100 is complete control, 13 to 15 d after treatment; for pest or weed control at 250 g/ha: Echinochloa crus-galli, 360 h, read-out: Plant response rating, Barnyardgrass
# Outline: as §2
# rice (Oryza sativa) = assay: Test B flooded paddy test; conditions: 250 g ai/ha, Flood, visual rating on scale of 0 to 100 where 0 is no effect and 100 is complete control, 13 to 15 d after treatment; for plant injury at 250 g/ha: Oryza sativa, 360 h, read-out: Plant response rating, Rice
# Outline: as §2
# [6] = system: ryegrass, Italian (Italian ryegrass, Lolium multiflorum); assay: Test A greenhouse herbicide test, pre- and postemergence; conditions: for pest or weed control at 125 g/ha / pest or weed control at 500 g/ha: Lolium multiflorum, 240 h
# Outline: as §1
# [7] = Postemergence, 31 g ai/ha, 0 to 100 scale (0 no effect, 100 complete control)
# [8] = Postemergence, 125 g ai/ha, scale 0 to 100, 0 is no effect, 100 is complete control
# [9] = Postemergence, 250 g ai/ha, scale 0 to 100, 0 no effect, 100 complete control, 13 to 15 d
# [10] = postemergence, 62 g ai/ha, scale 0 to 100, 0 no effect, 100 complete control
# [11] = post-emergence, Postemergence, 125 g ai/ha, visual rating after approx. 10 d, 0 to 100 scale (0 no effect, 100 complete control), read-out: Plant response rating, Ryegrass, Italian
# [12] = post-emergence, Postemergence, 500 g ai/ha, 0 to 100 scale, 0 is no effect, 100 is complete control, read-out: Ryegrass, Italian plant response rating
# [13] = pre-emergence, Preemergence, 125 g ai/ha, 0 to 100 scale where 0 is no effect and 100 is complete control, read-out: Ryegrass, Italian plant response rating
# [14] = post-emergence, Postemergence, 125 g ai/ha, visual rating after approx. 10 d, 0 to 100 scale (0 no effect, 100 complete control), read-out: Plant response rating, Foxtail, Giant
# [15] = post-emergence, Postemergence, 500 g ai/ha, 0 to 100 scale, 0 is no effect, 100 is complete control, read-out: Foxtail, Giant plant response rating
# [16] = pre-emergence, Preemergence, 125 g ai/ha, 0 to 100 scale where 0 is no effect and 100 is complete control, read-out: Foxtail, Giant plant response rating
# [17] = pre-emergence, Preemergence, 500 g ai/ha, 0 to 100 scale, 0 no effect, 100 complete control, read-out: Plant response rating, Foxtail, Giant
# [18] = pre-emergence, Preemergence, 500 g ai/ha, 0 to 100 scale, 0 no effect, 100 complete control, read-out: Plant response rating, Ryegrass, Italian
# [19] = Postemergence, 125 g ai/ha, 0 to 100 scale where 0 is no effect and 100 is complete control
# [20] = Postemergence, 500 g ai/ha, visual rating after approx. 10 d, 0 to 100 scale (0 no effect, 100 complete control)
# [21] = Preemergence, 125 g ai/ha, 0 to 100 scale where 0 is no effect and 100 is complete control
# [22] = Preemergence, 500 g ai/ha, 0 to 100 scale where 0 is no effect and 100 is complete control
# [23] = Postemergence, 125 g ai/ha, 0 to 100 scale, 0 no effect, 100 complete control
# [24] = Preemergence, 125 g ai/ha, visual injury rating, 0 to 100 scale (0 no effect, 100 complete control), approx. 10 d
SMILES,"Chickweed plant response rating [2, 7]","Plant response rating, Chickweed [2, 8]","Plant response rating, Chickweed [2, 9]",pest or weed control at 250 g/ha [3],pest or weed control at 250 g/ha [4],pest or weed control at 250 g/ha [5],plant injury at 250 g/ha (rice (Oryza sativa)),"pest or weed control at 500 g/ha [6, 12]","pest or weed control at 125 g/ha [6, 13]","pest or weed control at 500 g/ha [1, 15]","pest or weed control at 125 g/ha [1, 16]","pest or weed control at 500 g/ha [1, 17]","Plant response rating, Ryegrass, Italian [6, 20]","Plant response rating, Ryegrass, Italian [6, 22]","Plant response rating, Foxtail, Giant [1, 20]","Plant response rating, Foxtail, Giant [1, 22]","Plant response rating, Ducksalad [3]","Plant response rating, Sedge, Umbrella [4]","Plant response rating, Barnyardgrass [5]","Plant response rating, Rice (rice (Oryza sativa))",other results
"Cc1ccc2sc(C)c(-c3c(O)c(C)nn(C)c3=O)c2c1 [Compound 1, 4-(2,5-dimethylbenzo[b]thien-3-yl)-5-hydroxy-2,6-dimethyl-3(2H)-pyridazinone]",95,98,100,20%,0%,0%,0%,–,–,–,–,–,–,–,–,–,–,–,–,–,"pest or weed control at 1000 g/ha ([1]; post-emergence, Postemergence, 0 to 100 scale, 0 is no effect, 100 is complete control, read-out: Foxtail, Giant plant response rating): 80%; pest or weed control at 1000 g/ha ([1]; pre-emergence, Preemergence, 0 to 100 scale, 0 no effect, 100 complete control, read-out: Plant response rating, Foxtail, Giant): 100%; Chickweed plant response rating [2, 10]: 95"
"CC(=O)Oc1c(C)nn(C)c(=O)c1-c1c(C)oc2ccc(C)cc12 [Compound 14, 5-(acetyloxy)-4-(2,5-dimethyl-3-benzofuranyl)-2,6-dimethyl-3(2H)-pyridazinone]",90,90,90,0%,0%,0%,0%,80%,30%,70%,0%,10%,–,–,–,–,–,–,–,–,"pest or weed control at 125 g/ha [6, 11]: 60%; pest or weed control at 125 g/ha [1, 14]: 10%; Chickweed plant response rating [2, 10]: 90"
"CC(=O)Oc1c(C)nn(C)c(=O)c1-c1c(C)oc2c(C)cc(C)cc12 [Compound 16, 5-(acetyloxy)-2,6-dimethyl-4-(2,5,7-trimethyl-3-benzofuranyl)-3(2H)-pyridazinone]",75,90,90,30%,0%,0%,0%,80%,30%,80%,0%,30%,–,–,–,–,–,–,–,–,"pest or weed control at 125 g/ha [6, 11]: 50%; pest or weed control at 500 g/ha [6, 18]: 80%; pest or weed control at 125 g/ha [1, 14]: 20%; Chickweed plant response rating [2, 10]: 80"
"CCc1sc2cc(C)cc(C)c2c1-c1c(O)c(C)nn(C)c1=O [Compound 19, 4-(2-ethyl-4,6-dimethylbenzo[b]thien-3-yl)-5-hydroxy-2,6-dimethyl-3(2H)-pyridazinone]",–,–,–,0%,0%,0%,0%,0%,0%,60%,0%,0%,–,–,–,–,–,–,–,–,"pest or weed control at 125 g/ha [6, 11]: 0%; pest or weed control at 500 g/ha [6, 18]: 0%; pest or weed control at 125 g/ha [1, 14]: 20%"
"COc1nn(C)c(=O)c(-c2c(C)c(C)cc3ccccc23)c1O [Compound 46, 4-(2,3-dimethyl-1-naphthalenyl)-5-hydroxy-6-methoxy-2-methyl-3(2H)-pyridazinone]",–,–,–,0%,0%,0%,0%,80%,30%,80%,50%,90%,–,–,–,–,–,–,–,–,"pest or weed control at 125 g/ha ([6]; post-emergence, Postemergence, 125 g ai/ha, 0 to 100 scale where 0 is no effect and 100 is complete control, read-out: Plant response rating, Ryegrass, Italian): 30%; pest or weed control at 500 g/ha [6, 18]: 50%; pest or weed control at 125 g/ha ([1]; post-emergence, Postemergence, 125 g ai/ha, 0 to 100 scale where 0 is no effect and 100 is complete control, read-out: Plant response rating, Foxtail, Giant): 50%"
CCC(=O)Oc1c(C)nn(C)c(=O)c1-c1ccc(Br)c2ccccc12 [Compound 133],–,–,–,–,–,–,–,–,–,–,–,–,100,100,90,70,0,0,0,20,"Plant response rating, Ryegrass, Italian [6, 19]: 100; Ryegrass, Italian plant response rating [6, 21]: 100; Plant response rating, Foxtail, Giant [1, 19]: 20; Foxtail, Giant plant response rating [1, 21]: 40"
COC(=O)Oc1c(Br)nn(C)c(=O)c1-c1c(C)ccc2ccccc12 [Compound 137],–,–,–,–,–,–,–,–,–,–,–,–,100,100,100,100,40,65,25,0,"Plant response rating, Ryegrass, Italian [6, 19]: 100; Ryegrass, Italian plant response rating [6, 21]: 100; Plant response rating, Foxtail, Giant [1, 19]: 100; Foxtail, Giant plant response rating [1, 21]: 90"
COc1nn(C)c(=O)c(-c2c(C)ccc3ccccc23)c1OC(C)=O [Compound 138],–,–,–,–,–,–,–,–,–,–,–,–,100,100,100,100,0,0,0,0,"Plant response rating, Ryegrass, Italian [6, 19]: 90; Plant response rating, Foxtail, Giant [1, 19]: 90; Foxtail, Giant plant response rating [1, 21]: 90"
Cc1ccc2ccccc2c1-c1c(OC(=O)N2CCOCC2)c(Br)nn(C)c1=O [Compound 176],–,–,–,–,–,–,–,–,–,–,–,–,100,90,10,10,0,0,0,0,"Plant response rating, Ryegrass, Italian [6, 23]: 30; Plant response rating, Ryegrass, Italian [6, 24]: 0; Plant response rating, Foxtail, Giant [1, 23]: 0; Plant response rating, Foxtail, Giant [1, 24]: 0"
